Data taken from patent US10781224B2, “Bis(oxymethyl)phosphinic acid and biogenic metal salts thereof as regulators of plant growth and development” (priority 2016, dated 2020).

Columns and labels:
Format in all cases: in vivo
[1] = system: winter wheat (Vershin variety); experiment: Winter wheat seed treatment with BHMPA salts: germination energy and germination rate
Outline: (§1)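 Corn, winter wheat and rice seeds (50 per dish, on filter paper) were soaked for 1 h in BHMPA or its metal salts at 1·10^−6-1·10^−12%, with water as control. Germination energy was read on day 4 and germination rate on day 8 for wheat and day 7 for rice and corn, following GOST 12038-84, as the mean of four replicates.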

[2] = system: winter wheat (Vershin variety); experiment: Winter wheat seed treatment with BHMPA salts: germinating power (length and mass of roots and sprouts)
Outline: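 Seeds (50 per Petri dish on two layers of filter paper) soaked 1 h in BHMPA or its Ca, Mg, Na, Co, Mn, Cu or Zn salts at 1·10^−6-1·10^−12%, with water controls. Germination energy read on day 4, germination on day 8 (wheat) or day 7 (rice, corn), as % means of four replicates. Germinating power taken as root and sprout length plus wet and dry mass per 100 seedlings.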

[3] = system: corn (Krasnodar 385 MV variety); experiment: Corn seed treatment with BHMPA salts: germination energy and germination rate
Outline: as §1

[4] = winter wheat Vershin, 1·10^−6% solution
[5] = winter wheat Vershin, 1·10^−7% solution
[6] = winter wheat Vershin, 1·10^−8% solution
[7] = winter wheat Vershin, 1·10^−9% solution
[8] = winter wheat Vershin, 1·10^−10% solution
[9] = winter wheat Vershin, 1·10^−11% solution
[10] = winter wheat Vershin, 1·10^−12% solution
[11] = winter wheat, comparative study vs Melaphen, 1·10^−9% solution
[12] = comparative study, 1·10^−9% solution
[13] = comparative study vs Melaphen, 1·10^−10% solution

`O=P([O-])(CO)CO.[Na+]` [Na-salt, Sodium BHMPA Salt] showed a Germination energy [1, 4] of 84.4%, a Germination rate [1, 4] of 86.0% and a Germination energy [1, 5] of 86.7%. For the same compound, the Germination rate [1, 5] was 89.0%, the Germination energy [1, 6] was 90.2% and the Germination rate [1, 6] was 94.0%. The Germination energy [1, 7] was 92.3%, the Germination rate [1, 7] was 95.3% and the Germination energy [1, 8] was 88.4%. The Germination rate [1, 8] was 92.0%, the Germination energy [1, 9] was 85.0% and the Germination rate [1, 9] was 88.0%. The Germination energy [1, 10] was 83.2%, the Germination rate [1, 10] was 86.3% and the Germination energy [1, 11] was 87.3%. The Germination rate [1, 11] was 93.7%, the “effectiveness on germinating power” value ([2]; 1·10^−6% and 1·10^−12% solutions) was “marginally effective” and the Length, root ([2]; 1·10^−6% solution) was 5.0 cm. For the same compound, the “Length, root, + % to control” value ([2]; 1·10^−6% solution) was −5.7%, the Length, sprout ([2]; 1·10^−6% solution) was 6.0 cm and the “Length, sprout, + % to control” value ([2]; 1·10^−6% solution) was −1.6%. For the same compound, the Mass, dry, root ([2]; 1·10^−6% solution) was 0.37 g/100 plantlings, the “Mass, dry, root, + % to control” value ([2]; 1·10^−6% solution) was −10% and the Mass, dry, sprout ([2]; 1·10^−6% solution) was 0.54 g/100 plantlings. For the same compound, the “Mass, dry, sprout, + % to control” value ([2]; 1·10^−6% solution) was −3.6%, the Mass, wet, root ([2]; 1·10^−6% solution) was 2.35 g/100 plantlings and the “Mass, wet, root, + % to control” value ([2]; 1·10^−6% solution) was −3.7%. The Mass, wet, sprout ([2]; 1·10^−6% solution) was 4.51 g/100 plantlings, the “Mass, wet, sprout, + % to control” value ([2]; 1·10^−6% solution) was −3.6% and the Length, root ([2]; 1·10^−7% solution) was 5.3 cm. The “Length, root, + % to control” value ([2]; 1·10^−7% solution) was 0%, the Length, sprout ([2]; 1·10^−7% solution) was 6.3 cm and the “Length, sprout, + % to control” value ([2]; 1·10^−7% solution) was 3.3%. The Mass, dry, root ([2]; 1·10^−7% solution) was 0.45 g/100 plantlings, the “Mass, dry, root, + % to control” value ([2]; 1·10^−7% solution) was 10% and the Mass, dry, sprout ([2]; 1·10^−7% solution) was 0.56 g/100 plantlings. The “Mass, dry, sprout, + % to control” value ([2]; 1·10^−7% solution) was 0%, the Mass, wet, root ([2]; 1·10^−7% solution) was 2.58 g/100 plantlings and the “Mass, wet, root, + % to control” value ([2]; 1·10^−7% solution) was 5.7%. The Mass, wet, sprout ([2]; 1·10^−7% solution) was 5.03 g/100 plantlings, the “Mass, wet, sprout, + % to control” value ([2]; 1·10^−7% solution) was 7.5% and the Length, root ([2]; 1·10^−8% solution) was 5.6 cm. The “Length, root, + % to control” value ([2]; 1·10^−8% solution) was 5.7%, the Length, sprout ([2]; 1·10^−8% solution) was 6.7 cm and the “Length, sprout, + % to control” value ([2]; 1·10^−8% solution) was 10%. The Mass, dry, root ([2]; 1·10^−8% solution) was 0.47 g/100 plantlings, the “Mass, dry, root, + % to control” value ([2]; 1·10^−8% solution) was 14.6% and the Mass, dry, sprout ([2]; 1·10^−8% solution) was 0.63 g/100 plantlings. For the same compound, the “Mass, dry, sprout, + % to control” value ([2]; 1·10^−8% solution) was 12.5%, the Mass, wet, root ([2]; 1·10^−8% solution) was 2.73 g/100 plantlings and the “Mass, wet, root, + % to control” value ([2]; 1·10^−8% solution) was 12%. The Mass, wet, sprout ([2]; 1·10^−8% solution) was 5.37 g/100 plantlings, the “Mass, wet, sprout, + % to control” value ([2]; 1·10^−8% solution) was 15% and the Length, root ([2]; 1·10^−9% solution) was 5.7 cm. The “Length, root, + % to control” value ([2]; 1·10^−9% solution) was 7.5%, the Length, sprout ([2]; 1·10^−9% solution) was 6.9 cm and the “Length, sprout, + % to control” value ([2]; 1·10^−9% solution) was 13%. The Mass, dry, root ([2]; 1·10^−9% solution) was 0.56 g/100 plantlings, the “Mass, dry, root, + % to control” value ([2]; 1·10^−9% solution) was 36.5% and the Mass, dry, sprout ([2]; 1·10^−9% solution) was 0.69 g/100 plantlings. The “Mass, dry, sprout, + % to control” value ([2]; 1·10^−9% solution) was 23%, the Mass, wet, root ([2]; 1·10^−9% solution) was 3.21 g/100 plantlings and the “Mass, wet, root, + % to control” value ([2]; 1·10^−9% solution) was 31.5%. For the same compound, the Mass, wet, sprout ([2]; 1·10^−9% solution) was 5.41 g/100 plantlings, the “Mass, wet, sprout, + % to control” value ([2]; 1·10^−9% solution) was 15.6% and the Length, root ([2]; 1·10^−10% solution) was 5.6 cm. For the same compound, the “Length, root, + % to control” value ([2]; 1·10^−10% solution) was 5.7%, the Length, sprout ([2]; 1·10^−10% solution) was 6.5 cm and the “Length, sprout, + % to control” value ([2]; 1·10^−10% solution) was 6.5%. For the same compound, the Mass, dry, root ([2]; 1·10^−10% solution) was 0.46 g/100 plantlings, the “Mass, dry, root, + % to control” value ([2]; 1·10^−10% solution) was 12% and the Mass, dry, sprout ([2]; 1·10^−10% solution) was 0.61 g/100 plantlings. For the same compound, the “Mass, dry, sprout, + % to control” value ([2]; 1·10^−10% solution) was 9%, the Mass, wet, root ([2]; 1·10^−10% solution) was 2.66 g/100 plantlings and the “Mass, wet, root, + % to control” value ([2]; 1·10^−10% solution) was 9%. The Mass, wet, sprout ([2]; 1·10^−10% solution) was 5.33 g/100 plantlings, the “Mass, wet, sprout, + % to control” value ([2]; 1·10^−10% solution) was 14% and the Length, root ([2]; 1·10^−11% solution) was 5.5 cm. The “Length, root, + % to control” value ([2]; 1·10^−11% solution) was 3.8%, the Length, sprout ([2]; 1·10^−11% solution) was 6.4 cm and the “Length, sprout, + % to control” value ([2]; 1·10^−11% solution) was 5%. The Mass, dry, root ([2]; 1·10^−11% solution) was 0.43 g/100 plantlings, the “Mass, dry, root, + % to control” value ([2]; 1·10^−11% solution) was 5% and the Mass, dry, sprout ([2]; 1·10^−11% solution) was 0.60 g/100 plantlings. The “Mass, dry, sprout, + % to control” value ([2]; 1·10^−11% solution) was 7%, the Mass, wet, root ([2]; 1·10^−11% solution) was 2.57 g/100 plantlings and the “Mass, wet, root, + % to control” value ([2]; 1·10^−11% solution) was 5.3%. For the same compound, the Mass, wet, sprout ([2]; 1·10^−11% solution) was 5.11 g/100 plantlings, the “Mass, wet, sprout, + % to control” value ([2]; 1·10^−11% solution) was 9% and the Length, root ([2]; 1·10^−12% solution) was 5.4 cm. The “Length, root, + % to control” value ([2]; 1·10^−12% solution) was 2%, the Length, sprout ([2]; 1·10^−12% solution) was 6.3 cm and the “Length, sprout, + % to control” value ([2]; 1·10^−12% solution) was 3.3%. For the same compound, the Mass, dry, root ([2]; 1·10^−12% solution) was 0.42 g/100 plantlings, the “Mass, dry, root, + % to control” value ([2]; 1·10^−12% solution) was 2% and the Mass, dry, sprout ([2]; 1·10^−12% solution) was 0.58 g/100 plantlings. For the same compound, the “Mass, dry, sprout, + % to control” value ([2]; 1·10^−12% solution) was 3.6%, the Mass, wet, root ([2]; 1·10^−12% solution) was 2.41 g/100 plantlings and the “Mass, wet, root, + % to control” value ([2]; 1·10^−12% solution) was −1.2%. The Mass, wet, sprout ([2]; 1·10^−12% solution) was 5.03 g/100 plantlings, the “Mass, wet, sprout, + % to control” value ([2]; 1·10^−12% solution) was 7.5% and the Length, root [2, 12] was 8.7 cm. For the same compound, the “Length, root, + % to control” value [2, 12] was 0%, the Length, sprout [2, 12] was 6.4 cm and the “Length, sprout, + % to control” value [2, 12] was 3%. The Mass, dry, root [2, 12] was 0.64 g/100 plantlings, the “Mass, dry, root, + % to control” value [2, 12] was 3% and the Mass, dry, sprout [2, 12] was 0.53 g/100 plantlings. For the same compound, the “Mass, dry, sprout, + % to control” value [2, 12] was 4%, the Mass, wet, root [2, 12] was 4.19 g/100 plantlings and the “Mass, wet, root, + % to control” value [2, 12] was 16%. For the same compound, the Mass, wet, sprout [2, 12] was 4.73 g/100 plantlings, the “Mass, wet, sprout, + % to control” value [2, 12] was 19% and the Germination energy ([3]; 1·10^−6% solution) was 75.7%. For the same compound, the Germination rate ([3]; 1·10^−6% solution) was 78.3%, the Germination energy ([3]; 1·10^−7% solution) was 78.0% and the Germination rate ([3]; 1·10^−7% solution) was 81.8%. For the same compound, the Germination energy ([3]; 1·10^−8% solution) was 84.8%, the Germination rate ([3]; 1·10^−8% solution) was 87.5% and the Germination energy ([3]; 1·10^−9% solution) was 87.7%. The Germination rate ([3]; 1·10^−9% solution) was 91.7%, the Germination energy ([3]; 1·10^−10% solution) was 89.7% and the Germination rate ([3]; 1·10^−10% solution) was 93.0%. It also gave a Germination energy ([3]; 1·10^−11% solution) of 86.8%, a Germination rate ([3]; 1·10^−11% solution) of 89.5% and a Germination energy ([3]; 1·10^−12% solution) of 82.0%. For the same compound, the Germination rate ([3]; 1·10^−12% solution) was 85.5%, the Germination energy [3, 13] was 85.7% and the Germination rate [3, 13] was 94.0%.
